What was measured:
Assay type in all cases: cell-based
[1] = system: MAPK pathway; experiment: Western blot of MAPK pathway in PANC-1 cells; conditions: 5.5 mM sugar, 48 h
Procedure: FIG. 23 depicts Western blot analysis examining MAPK pathway expression in accordance with an embodiment of the present invention. PANC-1 pancreatic cancer cells were incubated in 2 mM glucose, 5.5 mM glucose or 5.5 mM fructose for 48 hours, after which Western blot analysis on total protein lysates was employed to examine phosphorylated MEK (pMEK), pRSK, and pCREB, and corresponding total MEK, RSK, and CREB levels.
Several signal transduction pathways may be involved in fructose-mediated pancreatic cancer growth but given the importance of the MAPK pathway in proliferation, the inventors believed that MAPK was involved. In the MAPK pathway, MEK mediated phosphorylation of the p44/42 MAP kinase (ERK) is the first step in this cascade, which results in phosphorylation of p90^Rsk, leading to transcriptional activation of CREB, and AP1, activating gene transcription and promoting cellular growth. The inventors employed Western blot analysis to examine MAPK pathway expression in pancreatic cancer cells incubated in 2 mM glucose, 5.5 mM glucose, and 5.5 mM fructose for 48 hours. Levels of the active phosphorylated proteins, pERK, pRSK, and pMEK were normalized to total ERK, RSK, and MEK levels respectively, and compared between the fructose-, and glucose-treated PANC-1 cells.

[2] = system: MCF-7 cells; experiment: Breast cancer cell proliferation in fructose versus glucose (MTT assay); conditions: 5 mM fructose compared to 5 mM glucose, 8-72 h
Procedure: Estrogen receptor (ER) positive MCF-7, and ER negative MDA-MB231 cells were plated in 5 mM fructose or glucose for times between 8-72 h, and proliferative rates measured using MTT assay. *, p<0.05; **, p<0.01.
FIG. 5 depicts fructose-mediated increased breast cancer proliferation in accordance with an embodiment of the present invention. ER positive MCF-7, and ER negative MDA-MB231 cells were plated in a range of fructose or glucose concentrations (5-25 mM) for 72 h, after which proliferative rates were measured using an MTT assay. *, p<0.05 for concentrations between 5-25 mM fructose versus glucose.
Standard media for breast cancer cell culture contain either 5-7 mM (low) and 12-25 mM (high) glucose concentrations. Estrogen receptor (ER) positive MCF-7, and ER negative MDA-MB231 cells were cultured overnight in 2 mM glucose standard DMEM medium containing 10% fetal bovine serum prior to incubation for periods between 8, and 72 hours in standard DMEM medium containing 10% fetal bovine serum, and 5 mM glucose or 5 mM fructose.
Proliferative rates were then measured in replicate (minimum of 6) aliquot wells of the breast cancer cells grown in glucose, or fructose containing medium. […] In separate experiments, proliferative rates of the MCF-7, and MDA-MB231 breast cancer cells were compared following culture in a range of fructose, and glucose concentrations (2-25 mM) for 72 hours.

[3] = system: PANC-1 cells; experiment: [1,2-13C2] stable isotope-based dynamic metabolic profiling in PANC-1 cells; conditions: 72 h
Procedure: FIG. 28 depicts the metabolism of fructose and glucose in pancreatic cancer cells in accordance with an embodiment of the present invention. Lactate generation from glycolysis (a), and hexose oxidation in the pentose and tricarboxylic acid cycles (b) following treatment of PANC-1 cells with 2 mM glucose, 5.5 mM glucose, and 5.5 mM fructose for 72 h. […] In (b), the ^13C to ^12C ratio in the CO2 released from the PANC-1 cells is presented.
FIG. 29 depicts fatty acid synthesis from glucose versus fructose in accordance with an embodiment of the present invention. Fatty acid synthesis represented by (a), ^13C-labelled oleate, (b) ^13C-labelled arachidic acid, and (c) ^13C-labelled 24-carbon fatty acid fraction following treatment of PANC-1 cells with 2 mM, and 5.5 mM glucose, and 5.5 mM fructose for 72 h. For the fatty acids, the fraction of ^13C-labeled oleate, arachidic acid or 24-carbon fatty acid is expressed as percentage of total oleate, arachidic acid or 24-carbon fatty acids, respectively.
FIG. 30 depicts ribose and deoxyribose synthesis following glucose and fructose treatment in accordance with an embodiment of the present invention.
Metabolism comprises anabolic (converting small molecules into big ones) and catabolic processes (converting food into useful energy), predicts the functional state of a cell, and analyzes the levels of the end products (metabolites) of anabolism and catabolism. Metabolic profiling using stable isotope tracer technology ([1,2-^13C] sugars) allows the measurement of the changing pattern of distribution of ^13C carbons from [1,2-^13C] glucose in intracellular metabolic intermediates, and provides a simultaneous measure of carbon flow toward the pentose cycle, glycolysis, direct glucose oxidation, tricarboxylic acid (TCA) cycle and fatty acid synthesis (76,77). […] The inventors employed [1,2-^13C2] glucose, or [1,2-^13C2] fructose stable isotope-based dynamic metabolic profiling (SiDMAP, Los Angeles, US) to track and quantify changes in glucose, and fructose carbon re-distribution among major metabolic pathways in pancreatic cancer cells (Lee W N, Boros L G, Puigjaner J, Bassilian S, Lim S, Cascante M. Mass istopomer study of transketolase-transaldolase pathways of the pentose cycle with [1,2-^13C2]glucose. Am J Physiol 274:E843-51, 1998; Lee W N, Byerley L O, Bassilian S, Ajie H O, Clark I, Edmond J. Isotopomer study of lipogenesis in human hepatoma cells in culture: contribution of carbon and hydrogen atoms from glucose. Anal Biochem 226: 100-112). The principles of this methodology are outlined below in a series of schematics (FIGS. 25-27) illustrating how this technique tracked carbohydrate metabolism and the data generated. […]

O=C(CO)[C@@H](O)[C@H](O)[C@H](O)CO [fructose]
pERK expression [1]: highest | pMEK expression [1]: highest | pRSK expression [1]: highest | proliferative rates [2]: higher proliferative rates | route of metabolism in the pentose phosphate shunt ([3]; 5.5 mM 13C-labeled sugar): preferentially metabolized by TKK | fraction metabolized for fatty acid synthesis (FAS) ([3]; 13C-labeled fructose vs glucose): comparatively less | CO2 production, fructose in comparison to glucose ([3]; 13C-labeled sugar): 34 fold lower | lactate production, fructose in comparison to glucose ([3]; 13C-labeled sugar): 34 fold lower

Source: patent US8241607B2, “Use of fructose-based compounds for the diagnosis of cancer” (priority 2005, dated 2012)
